Read-outs that look alike come from different tables or passages of the source. *1 amine or outer side, *2 acyl side, *3 side chain or, on linkers, in order; H or OH if unused. Where a SMILES comes first, the peptide text is derived from it. Bridges are numbered along the chain shown (N, C = ends). [ ]: non-standard residue; d: D form. Ala(9-anthryl) = N[C@@H](Cc1c2ccccc2cc2ccccc12)C(=O)O; Phe(4-tBu) = CC(C)(C)c1ccc(C[C@H](N)C(=O)O)cc1; Ala(E-styryl) = N[C@@H](C/C=C/c1ccccc1)C(=O)O; X2 = O=C([C@H](Cc1cc(F)c(F)cc1F)N[*:1])[*:2]; Bta = N[C@@H](Cc1csc2ccccc12)C(=O)O; hCha = N[C@@H](CCC1CCCCC1)C(=O)O; Hpg = N[C@H](C(=O)O)c1ccc(O)cc1; dTic = O=C(O)[C@H]1Cc2ccccc2CN1; Cit = NC(=O)NCCC[C@H](N)C(=O)O; AllylGly = C=CC[C@H](N)C(=O)O; Pen = CC(C)(S)[C@H](N)C(=O)O; S5 = C=CCCC[C@](C)(N)C(=O)O; Nle = CCCC[C@H](N)C(=O)O; Dap = NC[C@H](N)C(=O)O
Tests used:
hNTS2 receptor = biological target: T1, hNTS2 receptor (Homo sapiens, UniProt O95665); assay: Competitive radioligand binding assay on the hNTS2 receptor; settings: for IC50: membranes of 1321N1 cells expressing hNTS2; for Selectivity: ratio IC50 for NTS1 : IC50 for NTS2
T1 construct: membranes prepared from them
Description: (§1) CHO-K1 (Chinese Hamster Ovary) cells stably expressing hNTS1 and 1321N1 cells stably expressing hNTS2 (ES-690-C and ES-691-C from PerkinElmer, Montréal, Canada) were cultured respectively in Ham's F12 and in DMEM culture media. Culture media were supplemented with 10% FBS, 100 U/mL penicillin, 100 μg/mL streptomycin, 20 mM HEPES, and 0.4 mg/mL G418 at 37° C. in a humidified chamber at 5% CO2.
(§2) The cells expressing hNTS1 were frozen when they reached 80% confluency. They were scrapped off the dish with 10 mM Tris buffer, 1 mM EDTA, pH 7.5 and centrifuged at 15,000 g for 5 min at 4° C. The pellet was then re-suspended in 1 mL binding buffer. The cells expressing hNTS2 were also frozen when they reached 80% confluency. They were scraped off the dish with PBS, 0.5 mM EDTA, pH 7.5 and sonicated for 5 minutes (pulse 30 s/5 s off, amplitude 40%). They were ultracentrifuged at 100 000 g for 60 minutes at 4° C. The pellet was re-suspended in 1 mL freezing buffer (PBS, glycerol, 0.5 mM EDTA), sonicated for 1 minute (pulse 30 s/5 s off, amplitude 50%) and further diluted in binding buffer. Competitive radioligand binding experiments were performed by incubating 15 μg of cell membranes expressing the hNTS1 receptor with […] of ^125I-[Tyr^3]-NT (2200 Ci/mmol) or 50 μg of cell membranes expressing the hNTS2 receptor with […] of ^125I-[Tyr^3]-NT in binding buffer (50 mM Tris-HCl, pH 7.5, 0.2% BSA) in the presence of increasing concentrations of analogues ranging from 10^−11 to 10^−4 M for 60 min at 25° C. After incubation, the binding reaction mixture was transferred in PEI-coated 96-well filter plates (glass fiber filters GF/B, Millipore, Billerica, MA). Reaction was terminated by filtration, and plates were washed three times with 200 μL ice-cold binding buffer. Glass filters were then counted using a γ-counter (2470 Wizard2, PerkinElmer, Mississauga, Ontario, Canada). Non-specific binding was measured in the presence of 10^−5 M unlabeled NT (8-13) and represented less than 5% of total binding. IC50 values were determined from competition curves as the unlabeled ligand concentration inhibiting 50% of ^125I-[Tyr^3]-NT-specific binding.
(§3) Competitive radioligand binding data were plotted using the nonlinear regression One-site-Fit Log(IC50) and represented the mean±SEM of at least three independent experiments in triplicates.

hNTS1 receptor = biological target: T2, hNTS1 receptor (Homo sapiens, UniProt P30989); assay: Competitive radioligand binding assay on the hNTS1 receptor; settings: membranes of CHO-K1 cells expressing hNTS1
T2 construct: membranes prepared from them
Description: as §1, §2, §3

[1] = displacement of 125I-[Tyr3]-NT, read-out: IC50 NTS2 (converted)
[2] = displacement of 125I-[Tyr3]-NT, read-out: IC50 NTS1

T2 sequence (P30989 whole entry): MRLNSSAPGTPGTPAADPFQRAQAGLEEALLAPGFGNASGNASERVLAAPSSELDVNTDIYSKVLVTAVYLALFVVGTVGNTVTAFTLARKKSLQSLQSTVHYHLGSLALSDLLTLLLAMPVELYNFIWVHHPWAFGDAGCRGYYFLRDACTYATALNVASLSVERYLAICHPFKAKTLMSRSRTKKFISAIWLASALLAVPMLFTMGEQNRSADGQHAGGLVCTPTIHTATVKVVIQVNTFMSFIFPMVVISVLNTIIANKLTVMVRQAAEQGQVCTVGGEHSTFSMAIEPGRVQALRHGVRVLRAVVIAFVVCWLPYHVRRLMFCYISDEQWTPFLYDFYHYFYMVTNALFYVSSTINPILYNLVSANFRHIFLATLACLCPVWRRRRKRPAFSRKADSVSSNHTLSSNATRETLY
T1 sequence (O95665 whole entry): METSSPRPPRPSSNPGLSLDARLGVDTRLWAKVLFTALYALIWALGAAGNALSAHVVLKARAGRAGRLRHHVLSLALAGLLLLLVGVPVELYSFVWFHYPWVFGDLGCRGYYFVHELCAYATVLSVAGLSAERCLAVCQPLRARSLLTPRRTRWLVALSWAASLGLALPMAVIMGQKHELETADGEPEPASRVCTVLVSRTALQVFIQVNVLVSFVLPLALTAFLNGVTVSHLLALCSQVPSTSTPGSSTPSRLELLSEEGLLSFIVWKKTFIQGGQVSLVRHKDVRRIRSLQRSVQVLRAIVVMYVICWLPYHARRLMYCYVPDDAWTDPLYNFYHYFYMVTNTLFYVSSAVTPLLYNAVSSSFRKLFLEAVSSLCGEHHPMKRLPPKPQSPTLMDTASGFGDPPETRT

Compound | IC50 (hNTS2 receptor; [1]) [nM] | Selectivity (hNTS2 receptor) | IC50 (hNTS1 receptor; [2]) [nM] | IC50 (hNTS2 receptor; IC50 NTS2, displacement of 125I-[Tyr3]-NT) [nM] | IC50 (hNTS1 receptor; IC50 NTS1, displacement of 125I-[Tyr3]-NT) [nM]
CC(C)C[C@H](NC(=O)[C@H](C)NC(=O)[C@@H]1CC=CC[C@H](N)C(=O)N[C@@H](CCCCN)C(=O)N[C@@H](CCCCN)C(=O)N1)C(=O)O [compound 138, c[G(All)KKG(All)]AL] (H-[AllylGly]KK[AllylGly]AL-OH; staple 1-4) | 582 | 172 | > 100000 | – | –
CC(C)C[C@H](NC(=O)[C@@H](NC(=O)[C@@H]1CC=CC[C@H](N)C(=O)N[C@@H](CCCCN)C(=O)N[C@@H](CCCCN)C(=O)N1)c1ccc(O)cc1)C(=O)O [compound 125] (H-[AllylGly]KK[AllylGly][Hpg]L-OH; staple 1-4) | 1800 | 56 | > 100000 | – | –
CC(C)C[C@H](NC(=O)[C@H]1Cc2ccccc2CN1C(=O)[C@@H]1CC=CC[C@H](N)C(=O)N[C@@H](CCCCN)C(=O)N[C@@H](CCCCN)C(=O)N1)C(=O)O [compound 163, c[G(All)KKG(All)]G(Tic)L] (H-[AllylGly]KK[AllylGly][dTic]L-OH; staple 1-4) | 10000 | 10 | > 100000 | – | –
CC(C)C[C@H](NC(=O)[C@H](Cc1ccc(O)cc1)NC(=O)C1(C)CCCC=CCCC(=O)N[C@@H](CCCCN)C(=O)N[C@@H](CCCCN)C(=O)N1)C(=O)O (stereo partly drawn) [compound 132, c[K(Pentenoyl)KG(alpha-Me-(4-pentenyl))]YL] | 136 | 733 | > 100000 | – | –
NCCCC[C@@H]1NC(=O)[C@H](CCCCN)NC(=O)[C@@H](N)CC=CC[C@@H](C(=O)N[C@@H](Cc2ccc(O)cc2)C(=O)N[C@@H](CCC2CCCCC2)C(=O)O)NC1=O [compound 64, c[G(All)KKG(All)]YA(homoChA)] (H-[AllylGly]KK[AllylGly]Y[hCha]-OH; staple 1-4) | 7.74 | >12 920 | > 100000 | – | –
NCCCC[C@@H]1NC(=O)[C@H](CCCCN)NC(=O)[C@@H](N)CC=CC[C@@H](C(=O)N[C@@H](Cc2ccc(O)cc2)C(=O)N[C@@H](Cc2cc(F)c(F)cc2F)C(=O)O)NC1=O [compound 63, c[G(All)KKG(All)]YF(2,4,5-trifluoro)] (H-[AllylGly]KK[AllylGly]Y[X2]-OH; staple 1-4) | 366 | >273 | > 100000 | – | –
CC(C)C[C@H](NC(=O)[C@H](CCCCN)NC(=O)[C@@H]1CC=CC[C@H](N)C(=O)N[C@@H](CCCCN)C(=O)N[C@@H](CCCCN)C(=O)N1)C(=O)O [compound 17, c[G(All)KKG(All)]KL] (H-[AllylGly]KK[AllylGly]KL-OH; staple 1-4) | 1100 | 90.9 | > 100000 | – | –
NCCCC[C@@H]1NC(=O)[C@H](CCCCN)NC(=O)[C@@H](N)CC=CC[C@@H](C(=O)N[C@@H](Cc2ccc(O)cc2)C(=O)N[C@@H](Cc2ccccc2)C(=O)O)NC1=O [compound 32, c[G(All)KKG(All)]YF] (H-[AllylGly]KK[AllylGly]YF-OH; staple 1-4) | 453 | >220 | > 100000 | – | –
CC(C)C[C@H](NC(=O)[C@H](Cc1ccc(O)cc1)NC(=O)[C@@H]1CC=CCCC[C@](C)(N)C(=O)N[C@@H](CCCCN)C(=O)N[C@@H](CCCCN)C(=O)N1)C(=O)O [compound 89, c[G(alpha-Me-(4-Pentenyl))KKG(All)]YL] (H-[S5]KK[AllylGly]YL-OH; staple 1-4) | 13.2 | >7553 | > 100000 | – | –
CC(C)C[C@H](NC(=O)[C@H](Cc1ccc(O)cc1)NC(=O)[C@@H]1CC=CC[C@H](N)C(=O)N[C@@H](CCCCN)C(=O)N[C@@H](CCC(=O)O)C(=O)N1)C(=O)O [compound 61, c[G(All)KEG(All)]YL] (H-[AllylGly]KE[AllylGly]YL-OH; staple 1-4) | 12400 | >8. | > 100000 | – | –
CC(C)C[C@H](NC(=O)[C@H](Cc1ccc(O)cc1)NC(=O)[C@@H]1CC(=O)NCCCC[C@H](N)C(=O)N[C@@H](CCCCN)C(=O)N[C@@H](CCCCN)C(=O)N1)C(=O)O [compound 97, c[KKKD]YL] (H-KKKDYL-OH; lactam 1-4) | 1020 | >98.4 | > 100000 | – | –
CC(C)C[C@H](NC(=O)[C@H](Cc1ccc(C(C)(C)C)cc1)NC(=O)[C@@H]1CC=CC[C@H](N)C(=O)N[C@@H](CCCCN)C(=O)N[C@@H](CCCCN)C(=O)N1)C(=O)O [compound 110, c[G(All)KKG(All)]F(4-tbu)L] (H-[AllylGly]KK[AllylGly][Phe(4-tBu)]L-OH; staple 1-4) | 40.2 | >2488 | > 100000 | – | –
CCCC[C@H](NC(=O)[C@H](Cc1ccc(O)cc1)NC(=O)[C@@H]1CC=CC[C@H](N)C(=O)N[C@@H](CCCCN)C(=O)N[C@@H](CCCCN)C(=O)N1)C(=O)O [compound 28, c[G(All)KKG(All)]YNle] (H-[AllylGly]KK[AllylGly]Y[Nle]-OH; staple 1-4) | 381 | >262 | > 100000 | – | –
CC(C)C[C@H](NC(=O)[C@H](Cc1ccc(O)cc1)NC(=O)[C@@H]1CC=CC[C@H](N)C(=O)N[C@@H](CCCCN)C(=O)N[C@@H](CCCNC(N)=O)C(=O)N1)C(=O)O [compound 146, c[G(All)KcitrullineG(All)]YL] (H-[AllylGly]K[Cit][AllylGly]YL-OH; staple 1-4) | 698 | 143 | > 100000 | – | –
CC(C)C[C@H](NC(=O)[C@H](Cc1ccc(O)cc1)NC(=O)[C@@H]1CC=CC[C@H](N)C(=O)NCC(=O)N[C@@H](CCCCN)C(=O)N1)C(=O)O [compound 87, c[G(All)GKG(All)]YL] (H-[AllylGly]GK[AllylGly]YL-OH; staple 1-4) | 516 | >194 | > 100000 | – | –
CC(C)[C@H](NC(=O)[C@H](Cc1ccc(O)cc1)NC(=O)[C@@H]1CC=CC[C@H](N)C(=O)N[C@@H](CCCCN)C(=O)N[C@@H](CCCCN)C(=O)N1)C(=O)O [compound 33, c[G(All)KKG(All)]YV] (H-[AllylGly]KK[AllylGly]YV-OH; staple 1-4) | 79800 | >1.25 | > 100000 | – | –
CC(C)C[C@H](NC(=O)[C@H](Cc1ccc(O)cc1)NC(=O)[C@H]1NC(=O)[C@H](CCCCN)NC(=O)[C@H](CCCCN)NC(=O)[C@@H](N)C(C)(C)SSC1(C)C)C(=O)O [compound 155, c[(Pen)KK(Pen)]YL] (H-[Pen]KK[Pen]YL-OH; disulfide 1-4) | 318 | 315 | > 100000 | – | –
CC(C)C[C@H](NC(=O)[C@H](Cc1ccc(O)cc1)NC(=O)[C@@H]1CNC(=O)C[C@H](N)C(=O)N[C@@H](CCCCN)C(=O)N[C@@H](CCCCN)C(=O)N1)C(=O)O [compound 103, c[DKKDap]YL] (H-DKK[Dap]YL-OH; lactam 1-4) | 9100 | >11.0 | > 100000 | – | –
CC(C)C[C@H](NC(=O)[C@H](C/C=C/c1ccccc1)NC(=O)[C@@H]1CC=CC[C@H](N)C(=O)N[C@@H](CCCCN)C(=O)N[C@@H](CCCCN)C(=O)N1)C(=O)O [compound 161, c[G(All)KKG(All)]A(styryl) L] (H-[AllylGly]KK[AllylGly][Ala(E-styryl)]L-OH; staple 1-4) | 131 | 766 | > 100000 | – | –
CC(C)C[C@H](NC(=O)[C@H](Cc1c2ccccc2cc2ccccc12)NC(=O)[C@@H]1CC=CC[C@H](N)C(=O)N[C@@H](CCCCN)C(=O)N[C@@H](CCCCN)C(=O)N1)C(=O)O [compound 162, c[G(All)KKG(All)]A(anthryl-) L] (H-[AllylGly]KK[AllylGly][Ala(9-anthryl)]L-OH; staple 1-4) | – | 5249 | – | 19.1 | > 100000
CC(C)C[C@H](NC(=O)[C@H](Cc1csc2ccccc12)NC(=O)[C@@H]1CC=CC[C@H](N)C(=O)N[C@@H](CCCCN)C(=O)N[C@@H](CCCCN)C(=O)N1)C(=O)O [compound 168, c[G(All)KKG(All)]A(3-benzothienyl)L] (H-[AllylGly]KK[AllylGly][Bta]L-OH; staple 1-4) | 102 | 979 | > 100000 | – | –

From US12358948B2, “Neurotensinergic agonists and methods of using same preventing or treating pain” (priority 2019, dated 2025)
